According to ChEMBL document CHEMBL2203227, “Macrocycles are great cycles: applications, opportunities, and challenges of synthetic macrocycles in drug discovery” (J Med Chem, 2011):
Values belong to the compound of their own block, whether it stands above or below them. *1 amine or outer side, *2 acyl side, *3 side chain or, on linkers, in order; H or OH if unused. Where a SMILES comes first, the peptide text is derived from it. [ ]: non-standard residue; d: D form. The star is where a group is joined. LeuΨ(S-CHOHCH2)Ala = CC(C)C[C@H](N[*:1])[C@@H](O)C[C@@H](C)C(=O)[*:2]; Hyp = O=C(O)[C@@H]1C[C@@H](O)CN1; Nva = CCC[C@H](N)C(=O)O; Bn = c1ccc(C*)cc1

How the values were obtained:
[1] = Reversible inhibition of HCV NS3 protease; design: species or system Hepacivirus hominis
[2] = Inhibition of HCV NS3 protease; design: species or system Hepacivirus hominis
[3] = test system: Hepatitis C virus; experiment: microbe, parasite or virus in culture
Description: Antiviral activity against HCV by cell based replicon assay

[4] = Inhibition of HCV 3a NS3 protease; design: species or system Hepatitis C virus subtype 3a
[5] = test system: Hepatitis C virus; experiment: Inhibition of HCV 1b NS3 protease; design: species or system Hepatitis C virus subtype 1b
[6] = Inhibition of HIV protease; design: species or system Human immunodeficiency virus
[7] = Inhibition of HDAC by fluorimetry assay
[8] = Inhibition of FTase
[9] = biological target: Neprilysin (Homo sapiens, UniProt P08473); experiment: Inhibition of neutral endopeptidase
[10] = biological target: T1, Renin (Homo sapiens, UniProt P00797); experiment: Inhibition of renin
T1 sequence (P00797 whole entry): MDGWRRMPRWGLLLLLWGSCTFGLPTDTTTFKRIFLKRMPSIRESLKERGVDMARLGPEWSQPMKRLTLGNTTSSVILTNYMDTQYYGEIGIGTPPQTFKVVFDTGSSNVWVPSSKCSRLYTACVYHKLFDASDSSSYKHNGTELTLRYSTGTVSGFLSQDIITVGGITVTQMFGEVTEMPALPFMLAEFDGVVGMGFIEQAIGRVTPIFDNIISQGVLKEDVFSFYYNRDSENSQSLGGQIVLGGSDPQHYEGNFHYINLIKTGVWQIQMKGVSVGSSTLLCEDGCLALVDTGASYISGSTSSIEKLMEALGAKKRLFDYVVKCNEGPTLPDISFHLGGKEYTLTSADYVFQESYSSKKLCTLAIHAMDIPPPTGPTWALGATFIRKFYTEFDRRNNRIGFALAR

[11] = biological target: Sonic hedgehog protein (Mus musculus) (UniProt Q62226); experiment: Inhibition of sonic hedgehog pathway in mouse NIH-3T3 cells relative to control; type: cell-based; details: NIH3T3
[12] = Half life in dog; type: ADME, organism-based, Canis lupus familiaris; details: in vivo
[13] = biological target: Ras-related protein Rap-1A (Homo sapiens, UniProt P62834); experiment: Inhibition of Rap1a
[14] = biological target: DnaJ homolog subfamily A member 1 (Homo sapiens, UniProt P31689); experiment: Inhibition of HDJ2
[15] = Inhibition of GGTase
[16] = biological target: GTPase KRas (Homo sapiens, UniProt P01116); experiment: Inhibition of Ki-Ras
[17] = biological target: Beta-secretase 1 (Homo sapiens, UniProt P56817); experiment: Inhibition of BACE1
[18] = Selectivity ratio of IC50 for tPa to IC50 for thrombin
[19] = Selectivity ratio of IC50 for trypsin to IC50 for thrombin
[20] = biological target: Growth hormone secretagogue receptor type 1 (Homo sapiens, UniProt Q92847); experiment: Agonist activity at ghrelin receptor; type: functional
[21] = biological target: Prothrombin (Homo sapiens, UniProt P00734); experiment: Inhibition of thrombin
[22] = test system: MCF7; experiment: cells; details: Homo sapiens
Description: Antiproliferative activity against human MCF7 cells

Sequence of GTPase KRas (P01116 whole entry): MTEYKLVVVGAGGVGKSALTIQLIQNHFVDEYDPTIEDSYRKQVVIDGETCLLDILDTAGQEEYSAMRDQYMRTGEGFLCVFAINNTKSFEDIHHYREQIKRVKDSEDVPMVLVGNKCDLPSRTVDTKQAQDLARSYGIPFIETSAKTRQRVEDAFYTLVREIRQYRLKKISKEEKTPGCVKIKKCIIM
Sequence of Ras-related protein Rap-1A (P62834 whole entry): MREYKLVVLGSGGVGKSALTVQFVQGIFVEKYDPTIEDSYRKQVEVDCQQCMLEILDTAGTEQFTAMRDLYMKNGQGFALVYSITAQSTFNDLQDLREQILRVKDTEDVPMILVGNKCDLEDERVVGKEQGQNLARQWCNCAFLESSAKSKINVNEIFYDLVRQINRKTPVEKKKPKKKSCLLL
Sequence of DnaJ homolog subfamily A member 1 (P31689 whole entry): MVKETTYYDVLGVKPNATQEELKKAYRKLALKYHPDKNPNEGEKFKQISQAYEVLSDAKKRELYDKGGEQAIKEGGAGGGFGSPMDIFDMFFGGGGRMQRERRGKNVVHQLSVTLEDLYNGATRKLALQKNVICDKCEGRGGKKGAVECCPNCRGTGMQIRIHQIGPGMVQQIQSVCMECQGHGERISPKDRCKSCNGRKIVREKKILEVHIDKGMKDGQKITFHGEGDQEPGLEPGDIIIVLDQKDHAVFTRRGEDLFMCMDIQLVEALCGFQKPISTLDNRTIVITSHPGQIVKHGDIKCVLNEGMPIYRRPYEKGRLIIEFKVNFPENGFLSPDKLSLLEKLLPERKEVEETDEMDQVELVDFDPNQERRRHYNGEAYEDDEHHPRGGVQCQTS
Sequence of Beta-secretase 1 (P56817 whole entry): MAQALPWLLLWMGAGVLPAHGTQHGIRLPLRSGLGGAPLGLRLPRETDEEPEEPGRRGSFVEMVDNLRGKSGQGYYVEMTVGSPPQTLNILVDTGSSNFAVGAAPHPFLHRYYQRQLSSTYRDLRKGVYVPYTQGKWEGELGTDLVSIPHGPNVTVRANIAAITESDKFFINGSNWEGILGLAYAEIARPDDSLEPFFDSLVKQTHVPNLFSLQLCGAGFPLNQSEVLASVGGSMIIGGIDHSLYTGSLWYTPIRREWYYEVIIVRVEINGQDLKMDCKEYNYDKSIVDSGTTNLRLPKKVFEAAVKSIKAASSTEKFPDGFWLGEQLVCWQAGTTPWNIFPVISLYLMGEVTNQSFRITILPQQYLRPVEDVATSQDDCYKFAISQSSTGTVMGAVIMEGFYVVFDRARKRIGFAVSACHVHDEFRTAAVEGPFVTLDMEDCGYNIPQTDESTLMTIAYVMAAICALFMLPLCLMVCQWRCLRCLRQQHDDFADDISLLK
Sequence of Growth hormone secretagogue receptor type 1 (Q92847 whole entry): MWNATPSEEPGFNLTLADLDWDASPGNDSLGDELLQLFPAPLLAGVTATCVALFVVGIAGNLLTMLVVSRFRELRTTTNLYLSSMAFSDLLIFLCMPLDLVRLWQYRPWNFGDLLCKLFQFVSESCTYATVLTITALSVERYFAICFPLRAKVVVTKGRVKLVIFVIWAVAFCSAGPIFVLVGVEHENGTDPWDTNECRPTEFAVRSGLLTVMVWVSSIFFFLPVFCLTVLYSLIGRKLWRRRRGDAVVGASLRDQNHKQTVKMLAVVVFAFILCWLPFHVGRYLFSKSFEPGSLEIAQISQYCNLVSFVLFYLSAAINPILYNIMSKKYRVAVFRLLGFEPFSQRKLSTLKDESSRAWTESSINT
Sequence of Neprilysin (P08473 whole entry): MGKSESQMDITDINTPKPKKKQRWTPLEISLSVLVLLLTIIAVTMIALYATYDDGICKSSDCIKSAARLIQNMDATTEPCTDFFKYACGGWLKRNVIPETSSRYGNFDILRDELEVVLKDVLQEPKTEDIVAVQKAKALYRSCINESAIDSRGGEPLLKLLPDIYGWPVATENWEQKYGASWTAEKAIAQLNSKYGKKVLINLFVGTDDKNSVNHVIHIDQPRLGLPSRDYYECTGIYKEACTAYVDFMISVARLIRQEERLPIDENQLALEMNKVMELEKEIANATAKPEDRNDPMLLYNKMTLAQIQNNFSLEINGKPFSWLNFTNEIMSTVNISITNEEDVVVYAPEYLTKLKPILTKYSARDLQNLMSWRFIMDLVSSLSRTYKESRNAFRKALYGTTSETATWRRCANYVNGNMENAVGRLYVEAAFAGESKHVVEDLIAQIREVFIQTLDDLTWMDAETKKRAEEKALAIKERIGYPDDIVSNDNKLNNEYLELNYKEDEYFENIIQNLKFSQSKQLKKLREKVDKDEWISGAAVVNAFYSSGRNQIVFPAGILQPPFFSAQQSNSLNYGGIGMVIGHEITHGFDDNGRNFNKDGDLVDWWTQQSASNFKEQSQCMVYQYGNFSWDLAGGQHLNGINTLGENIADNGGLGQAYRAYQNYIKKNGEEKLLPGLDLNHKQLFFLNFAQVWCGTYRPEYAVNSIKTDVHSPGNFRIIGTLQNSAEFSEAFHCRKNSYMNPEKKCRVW

Ki [1]: 6 nM
Structure (SMILES): CN(C)C(=O)[C@@H](NC(=O)CNC(=O)C(=O)[C@@H]1CCCCCCCCCC[C@H](NC(=O)NC(C)(C)C)C(=O)N2C[C@H]3[C@@H]([C@H]2C(=O)N1)C3(C)C)c1ccccc1

IC50 [2]: 7000 nM
Structure (SMILES): CCC[C@H](NC(=O)[C@@H]1C[C@@H](OCc2ccccc2)CN1C(=O)[C@@H](NC(=O)[C@@H](NC(=O)[C@H](CC(=O)O)NC(=O)[C@H](CC(=O)O)NC(C)=O)[C@@H](C)CC)C(C)C)C(=O)O (Ac-DDIV[Hyp](Bn)[Nva]-OH)

EC50 [3]: 2 nM | Ki [4]: 1.2 nM
Structure (SMILES): COc1cc2nc(-c3ccccc3)cc3c2cc1/C=C/CC(C)(C)COC(=O)N[C@H]1CCCCC/C=C\[C@@H]2C[C@@]2(C(=O)NS(=O)(=O)C2CC2)NC(=O)[C@@H]2C[C@H](CN2C1=O)O3
Ki [5]: 0.029 nM

IC50 [6]: 7 nM | Ki [6]: 0.06 nM
Structure (SMILES): COc1ccc2c(c1)OCC/C=C/CCCCN(C[C@@H](O)[C@H](Cc1ccccc1)NC(=O)O[C@H]1CO[C@H]3OCC[C@H]31)S2(=O)=O

IC50 [7]: 6100 nM
Structure (SMILES): O=C(CCCCCC1C2=NC(Cc3ccccc3)=C(O2)C(Cc2ccccc2)CCCCn2cc(nn2)CCCN1Cc1ccccc1)NO (stereo not given)

Ki [6]: 15 nM
Structure (SMILES): CC[C@H](C)[C@@H]1NC(=O)[C@@H](NC[C@H](O)[C@H](Cc2ccccc2)NC(=O)OC(C)(C)C)Cc2ccc(cc2)Oc2ccc(cc2)C[C@@H](C(=O)OC)NC1=O

Ki [6]: 0.015 nM
Structure (SMILES): CC(C)CN(C[C@@H](O)[C@H](Cc1ccccc1)NC(=O)O[C@H]1CO[C@H]2OCC[C@H]21)S(=O)(=O)c1ccc(N)cc1

Ki [6]: 3 nM
Structure (SMILES): CC[C@H](C)[C@@H]1NC(=O)[C@@H](NC[C@@H](O)[C@@H]2Cc3ccc(cc3)OCCCCC(=O)N[C@@H](C(C)C)C(=O)N2)Cc2ccc(cc2)OCCCNC1=O

IC50 [8]: 475 nM
Structure (SMILES): Cc1ncn(Cc2ccc(C#N)cc2)c1CN1CC(=O)N(c2cccc(Cl)c2)C[C@@H]1CCS(C)(=O)=O

IC50 [9]: 0.8 nM
Structure (SMILES): O=C1N[C@H](C(=O)N2C[C@H](O)C[C@H]2C(=O)O)CCCCCC[C@H]1CS

IC50 [10]: 69000 nM
Structure (SMILES): CC[C@H](C)[C@H](NC(=O)[C@@H](NC[C@@H]1COCCCCCN(C(=O)[C@H](Cc2ccccc2)NC(=O)OC(C)(C)C)[C@@H](C)C(=O)N1)C(C)C)C(=O)N[C@@H](Cc1cnc[nH]1)C(=O)OC

Emax [11]: 30%
Structure (SMILES): C[C@H]1COC(=O)[C@@H](N)CC/C=C/C[C@@H](CC(=O)N(CCO)Cc2ccccc2)C(=O)N1

Structure (SMILES): N#Cc1ccc2cc1Oc1ccc3cccc(c3c1)N1CCN(CC1=O)Cc1cncn1C2
half-life [12]: 1 h | EC50 [13]: > 10000 nM | EC50 [14]: 2 nM | IC50 [15]: 301 nM | EC50 [16]: > 10000 nM | IC50 [8]: 0.1 nM

IC50 [17]: 1.6 nM
Structure (SMILES): CC(C)C[C@H](NC(=O)[C@H](CC(N)=O)NC(=O)[C@H](C)NC(=O)[C@@H](N)CCC(=O)O)[C@@H](O)C[C@@H](C)C(=O)N[C@@H](C)C(=O)N[C@@H](CCC(=O)O)C(=O)N[C@@H](Cc1ccccc1)C(=O)O (H-EAN[LeuΨ(S-CHOHCH2)Ala]AEF-OH)

Ratio IC50 [18]: > 2000 | Ratio IC50 [19]: > 2000
Structure (SMILES): O=C1COc2ccc(Cl)cc2CNC(=O)[C@@H]2CCCN2C(=O)[C@@H](C2CCCCC2)NC(=O)CCCN1

EC50 [20]: 68 nM
Structure (SMILES): CCC[C@@H]1NCCOc2ccccc2/C=C/CNC(=O)[C@@H](Cc2ccccc2)NC(=O)CN(C)C1=O

Ki [6]: 0.6 nM
Structure (SMILES): CC(C)CCN(C[C@@H](O)[C@@H]1Cc2ccc(cc2)OCCCC(=O)N[C@@H](CC(N)=O)C(=O)N1)S(=O)(=O)c1ccccc1

IC50 [6]: 4.6 nM | Ki [6]: 0.012 nM
Structure (SMILES): COc1ccc2c(c1)OCC/C=C\CCCCN(C[C@@H](O)[C@H](Cc1ccccc1)NC(=O)O[C@H]1CO[C@H]3OCC[C@H]31)S2(=O)=O

IC50 [3]: 354 nM | Ki [1]: 7 nM
Structure (SMILES): CCC[C@H](NC(=O)[C@@H]1[C@H]2CCC[C@H]2CN1C(=O)[C@@H](NC(=O)[C@@H](NC(=O)c1cnccn1)C1CCCCC1)C(C)(C)C)C(=O)C(=O)NC1CC1

Ratio IC50 [18]: 7100 | Ratio IC50 [19]: 23000 | Ki [21]: 0.09 nM
Structure (SMILES): O=C1Cn2c(Cl)cnc(c2=O)N[C@@H](Cc2ccccc2)CNCCCNCCOc2ccc(Cl)cc2CN1

IC50 [22]: 200 nM
Structure (SMILES): O=S1(=O)NCCCNc2nc(ncc2Br)Nc2cccc1c2

Ki [6]: 1.8 nM
Structure (SMILES): CC[C@H](C)[C@@H]1NC(=O)[C@@H](NC[C@@H](O)[C@H](Cc2ccc(O)cc2)NC[C@H](C(C)C)N2CCCC2=O)Cc2ccc(cc2)OCCCNC1=O

Structure (SMILES): N#Cc1ccc2cc1Oc1ccc(CCC3CCCCC3)c(c1)CN1CCN(CC1=O)Cc1cncn1C2
EC50 [13]: 140 nM | EC50 [14]: 12 nM | IC50 [15]: 1.7 nM | EC50 [16]: 1060 nM | IC50 [8]: 1.6 nM
